The source of these data is article PMC12785803, “Novel ACE-Inhibitory Peptides from Royal Jelly Proteins: Comprehensive Screening, Mechanistic Insights, and Endothelial Protection” (Foods, 2025).

Where two headings read alike, the source gives them in different places.

Assay [1] has as its system ACE. Further details: method as in 3 sources, ref 40 = [40]; PMID 38384691; doi:10.1016/j.fochx.2024.101211; 40. Wei G. Wang T. Li Y. He R. Huang A. Wang X. Identification, Structural Characterization, and Molecular Dynamic Simulation of ACE Inhibitory Peptides in Whey Hydrolysates from Chinese Rushan Cheese ||| ref 41 = [41]; PMID 39250996; doi:10.1016/j.ijbiomac.2024.135469; 41. Wang S. Zhang L. Wang H. Liu J. Hu Y. Tu Z. Angiotensin Converting Enzyme (ACE) Inhibitory Peptide from the Tuna ( Thunnus thynnus ) Muscle: Screening, Interaction Mechanism and Stability Int. J. ||| ref 42 = [42]; PMID 37793525; doi:10.1016/j.ijbiomac.2023.127196; 42. Wang S. Zhang L. Wang H. Hu Z. Xie X. Chen H. Tu Z. Identification of Novel Angiotensin Converting Enzyme (ACE) Inhibitory Peptides from Pacific Saury: In Vivo Antihypertensive Effect and Transpor. The conditions noted are these: cited from earlier work.

Assay [2] relates to ACE. On the set-up: method as in 4 sources, ref Han et al. [33] ||| ref 45 = [45]; PMID 35323475; doi:10.3390/md20030176; 45. Zheng S.-L. Luo Q.-B. Suo S.-K. Zhao Y.-Q. Chi C.-F. Wang B. Preparation, Identification, Molecular Docking Study and Protective Function on HUVECs of Novel ACE Inhibitory Peptides from Protein Hy ||| ref 36 = [36]; PMID 37888451; doi:10.3390/md21100516; 36. Hu Y.-D. Xi Q.-H. Kong J. Zhao Y.-Q. Chi C.-F. Wang B. Angiotensin-I-Converting Enzyme (ACE)-Inhibitory Peptides from the Collagens of Monkfish ( Lophius litulon ) Swim Bladders: Isolation, Charac ||| ref 46 = [46]; PMID 37944395; doi:10.1016/j.foodchem.2023.137921; 46. Du T. Xu Y. Xu X. Xiong S. Zhang L. Dong B. Huang J. Huang T. Xiao M. Xiong T. ACE Inhibitory Peptides from Enzymatic Hydrolysate of Fermented Black Sesame Seed: Random Forest-Based Optimization. The note with it: cited from earlier work. The text has this:
These comparisons support the interaction profile observed for PY ...

In assay [3] the test system is ACE. The conditions noted are these: cited from earlier work. The text has this: As compared to traditional experiment-based screening approaches for ACE-inhibitory peptides, which are time-consuming and labor-intensive, an in silico strategy that integrates peptidomic analysis with virtual screening has emerged as a more efficient and cost-effective approach for identifying ACE-inhibitory peptides from food resources. For example, in a previous study by our group, a novel ACE-inhibitory peptide, MMDF, was identified from the simulated digest of oyster proteins using a virtual screening pipeline that incorporated bioactivity prediction, physicochemical proper ... || In recent years, the hydrolysates of royal jelly proteins (RJPs) have gained increasing attention due to their broad spectrum of biological activities, including antioxidant, antibacterial, anti-aging, and antihypertensive properties, which are largely attributed to their favorable amino acid composition and sequence characteristics.

In assay [4] the test system is EA.hy926 cells. Nature of the assay: SOD activity in H2O2-damaged cells. Format: cell-based. The note with it: 500 μmol/L H2O2 alone; control 126.15 ± 9.22. The protocol: (§1) The activities of SOD and GSH-Px were assessed as follows. EA.hy926 cells were seeded in 6-well plates at 4 × 10^5 cells per well and cultured overnight. After attachment, the cells were serum-starved in high-glucose DMEM containing 1% FBS for 12 h, and then treated for 24 h with peptide solutions at the indicated concentrations or with captopril. […] After treatment, the cells were washed with ice-cold PBS, lysed on ice, and centrifuged to collect the supernatants. SOD and GSH-Px activities were measured spectrophotometrically at 550 nm and 412 nm, respectively, using a microplate reader. Enzyme activities were calculated, normalized to total protein content, and expressed as U/mg protein.

Assay [5] concerns EA.hy926 cells. In words: GSH-Px activity in H2O2-damaged cells. Format: cell-based. The conditions noted are these: 500 μmol/L H2O2 alone; control 165.92 ± 5.21. The protocol:
as §1

Assay [6] concerns the target T1, Angiotensin-converting enzyme (ACE) (Oryctolagus cuniculus, UniProt P12822).
T1 sequence (P12822 34-1310): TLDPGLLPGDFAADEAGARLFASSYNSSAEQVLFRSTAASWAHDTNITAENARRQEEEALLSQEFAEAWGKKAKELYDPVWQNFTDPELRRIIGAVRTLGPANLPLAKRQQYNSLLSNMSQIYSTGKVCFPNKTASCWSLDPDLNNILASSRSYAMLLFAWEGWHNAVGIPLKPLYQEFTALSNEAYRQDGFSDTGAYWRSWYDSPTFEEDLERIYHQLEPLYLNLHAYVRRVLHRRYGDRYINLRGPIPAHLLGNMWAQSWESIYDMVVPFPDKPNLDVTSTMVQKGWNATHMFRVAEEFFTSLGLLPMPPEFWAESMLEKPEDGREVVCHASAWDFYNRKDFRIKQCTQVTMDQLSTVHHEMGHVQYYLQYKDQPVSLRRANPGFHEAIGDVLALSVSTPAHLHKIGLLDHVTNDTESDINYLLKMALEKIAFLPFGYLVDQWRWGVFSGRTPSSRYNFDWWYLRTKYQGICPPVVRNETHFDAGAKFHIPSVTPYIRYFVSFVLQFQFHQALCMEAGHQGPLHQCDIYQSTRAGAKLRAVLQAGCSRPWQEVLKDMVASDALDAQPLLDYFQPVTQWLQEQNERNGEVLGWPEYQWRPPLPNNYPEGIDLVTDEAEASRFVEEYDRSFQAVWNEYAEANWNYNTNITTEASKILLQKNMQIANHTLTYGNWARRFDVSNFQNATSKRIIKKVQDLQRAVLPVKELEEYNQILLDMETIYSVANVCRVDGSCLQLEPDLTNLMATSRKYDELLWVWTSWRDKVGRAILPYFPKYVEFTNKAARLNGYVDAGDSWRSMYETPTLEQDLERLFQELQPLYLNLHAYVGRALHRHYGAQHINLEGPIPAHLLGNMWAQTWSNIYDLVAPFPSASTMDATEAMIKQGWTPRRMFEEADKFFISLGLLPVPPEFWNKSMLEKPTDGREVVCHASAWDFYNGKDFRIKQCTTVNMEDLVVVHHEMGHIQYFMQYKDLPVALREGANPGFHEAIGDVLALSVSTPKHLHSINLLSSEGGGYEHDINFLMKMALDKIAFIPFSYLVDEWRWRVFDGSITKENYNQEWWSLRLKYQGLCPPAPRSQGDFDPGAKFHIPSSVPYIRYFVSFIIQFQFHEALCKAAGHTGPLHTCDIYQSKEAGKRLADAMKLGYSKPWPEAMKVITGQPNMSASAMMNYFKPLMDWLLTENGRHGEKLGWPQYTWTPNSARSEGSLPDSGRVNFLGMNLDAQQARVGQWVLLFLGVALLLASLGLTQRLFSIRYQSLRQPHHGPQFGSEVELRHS
Nature of the assay: In vitro ACE-inhibitory activity (HHL substrate, HPLC of hippuric acid). Format: biochemical. The note with it: tested at 0.5 mg/mL, p < 0.05. The method, then:
The ACE-inhibitory activity of the peptides was measured according to a previously reported method. Briefly, 50 μL of the peptide solution, prepared in borate buffer (pH 8.3) containing 0.3 mol/L NaCl, was mixed with 100 μL of HHL (5.82 mmol/L) prepared in the same buffer. After incubation at 37 °C for 5 min, the reaction was initiated by adding 15 μL of ACE solution (0.1 U/mL), also prepared in the borate buffer described above. The mixture was then incubated at 37 °C for 30 min and terminated by adding 150 μL of 1 mol/L HCl. For the blank control, the same procedure was performed using 50 μL of the borate buffer instead of the peptide solution.
The released hippuric acid (HA) was quantified using an Elite P3200 high-performance liquid chromatography (HPLC) system (Dalian Elite Analytical Instruments Co., Ltd., Dalian, China) equipped with a C18 reversed-phase column (Waters, Milford, MA, USA; 150 mm × 4.6 mm, 5 μm) at a detection wavelength of 228 nm. The mobile phase consisted of solvent A (water containing 0.05% trifluoroacetic acid) and solvent B (acetonitrile) in a ratio of 75:25 (v/v). […]
The ACE inhibition rate (%) was calculated using the following equation:(1) ACE Inhibitory rate%=Ablank−Asample/Ablank×100 where Ablank is the peak area of HA in the blank control test, and Asample is the peak area of HA in the sample test. […]

In assay [7] the test system is EA.hy926 cells. Nature of the assay: ET-1 level in Ang II-stimulated cells (ELISA). Format: cell-based. The note with it: Ang II 1 μmol/L alone; control 13.82 ± 0.69. The method, then: (§2) To evaluate the effect of the peptide on endothelial function, NO and ET-1 levels were measured in this study. Briefly, EA.hy926 cells were seeded in 6-well plates at a density of 4 × 10^5 cells/well and allowed to adhere overnight. After removing the medium, cells were incubated with 1 μmol/L Ang II for 12 h to induce endothelial dysfunction. Subsequently, the peptide solutions at different concentrations (0.1, 0.2, and 0.4 mg/mL) or the captopril solutions were added, and the cells were incubated for an additional 24 h. For the blank control group, the cells received no treatment. After incubation, the culture supernatants were collected and centrifuged to remove debris. Both NO and ET-1 contents in the supernatants were quantified using commercial kits according to the manufacturer’s protocols. NO content was determined using the Griess reaction (OD = 550 nm), and ET-1 levels were measured via enzyme-linked immunosorbent assay (ELISA) (OD = 450 nm). Absorbance values were recorded at the corresponding wavelengths using a microplate reader (Spark 10M, Tecan, Männedorf, Switzerland).

Assay [8] relates to EA.hy926 cells. Nature of the assay: Wound healing assay (Ang II-induced migration). Format: cell-based. The note with it: Ang II 1 μmol/L alone. The protocol: The effect of peptides on endothelial cell migration was evaluated using a wound healing assay. Briefly, EA.hy926 cells were seeded into 6-well plates and cultured at 37 °C in a humidified atmosphere containing 5% CO2. When the cells reached full confluence, they were treated with 1 μmol/L Ang II for 12 h to induce endothelial dysfunction. Subsequently, a straight scratch was created across the cell monolayer using a sterile 200 μL pipette tip. Detached cells were gently removed by rinsing with PBS, leaving a clear cell-free wound area. To minimize proliferation interference, cells were then incubated in high-glucose DMEM containing 1% FBS, supplemented with different concentrations of the peptides or captopril. Images of the same wound area were captured at 0 h, 6 h, and 24 h using a fluorescence microscope (Axio Observer, Zeiss, Jena, Germany), and the wound area was quantified using ImageJ software (version 1.54g).

The test system of assay [9] is EA.hy926 cells. Nature of the assay: NO level in Ang II-stimulated cells (Griess). In kind it is cell-based. The note with it: Ang II 1 μmol/L alone; control 109.8 ± 3.93. The protocol: as §2

As for LEPWR [from Pacific saury], in the assay on ACE [1] (from Pacific saury), the ACE inhibition mode result was “mixed-type ACE inhibition”.

As to VDRYF [from skipjack tuna muscle], the “Docking interactions with ACE” value in the assay with ACE [2] (skipjack tuna muscle) is “formed hydrogen bonds with Ala354 and Tyr523 within S1 pocket, respectively”.

On to “SLPNYHPSPR [from fermented black sesame seed]”, for which, in the assay on ACE [2] (fermented black sesame seed), the “Docking interactions with ACE” value is reported as “strong ACE inhibition due to direct Zn^2+ coordination”.

As for FDGPY [identified from Lophius litulon], in the assay on ACE [2] (monkfish swim bladder), the “Docking interactions with ACE” value was “interacted with Ala354 and Tyr523 via hydrogen bonding and hydrophobic interactions”. The IC50 in the assay with ACE [3] (from Lophius litulon) was 1570 µM.

With “KWEKPF [from Chinese Rushan cheese by-products]”, the ACE inhibition mode result in the assay on ACE [1] (from Chinese Rushan cheese by-products) was “mixed-type ACE inhibition”.

Consider `OO` [H2O2, hydrogen peroxide], for which, in the assay on EA.hy926 cells [4], the SOD activity is recorded as 67.47 ± 9.93 U/mg prot. In addition, the GSH-Px activity with EA.hy926 cells [5] turned out to be 119.49 ± 3.94 U/mg prot.

With “QWHDKIF [RJP-derived peptide; synthesized]”, the “ACE-inhibitory activity in vitro (comparison in words)” value in assay [6] is “PYPDWSFAK and RPYPDWSF exhibited significantly higher ACE-inhibitory activity in vitro than FDVDRW and QWHDKIF”.

In the case of “LTGCP [from tuna (Thunnus thynnus) muscle]”, the ACE inhibition mode entry in the assay with ACE [1] (from tuna (Thunnus thynnus) muscle) is “mixed-type ACE inhibition”.

Regarding “ITAPHW [from fermented black sesame seed]”, in the assay on ACE [2] (fermented black sesame seed), the “Docking interactions with ACE” value is “strong ACE inhibition due to direct Zn^2+ coordination”.

As for FPPDVA, the IC50 in the assay on ACE [3] (from tuna dark muscle hydrolysates) was 87.1 ± 1.02 µM.

For the compound SPGPW [identified from Lophius litulon], in the assay on ACE [2] (monkfish swim bladder), the “Docking interactions with ACE” value was “formed a hydrogen bond with the catalytic residue His387”. Further, the IC50 with ACE [3] (from Lophius litulon) was 1310 µM.

On to “Angiotensin II (DRVYIHPF; Angiotensin-2; UniProt P01019 25-32, looked up) [Ang II, used to induce endothelial dysfunction]”, for which the ET-1 content with EA.hy926 cells [7] was found to be 15.65 ± 0.83 pg/mg prot. The Migration rate with EA.hy926 cells [8] (6 h, control 35.95 ± 1.08%) was found to be 42.44 ± 2.12%; with EA.hy926 cells [8] (24 h, control 79.33 ± 0.48%) it was 89.68 ± 1.47%. In the assay on EA.hy926 cells [9], this compound registered an NO level of 58.95 ± 4.31 μmol/g prot.

Turning to SEGPK [identified from Lophius litulon], the “Docking interactions with ACE” value in the assay with ACE [2] (monkfish swim bladder) is “interacted with Ala354 and Tyr523 via hydrogen bonding and hydrophobic interactions”. Also, in the assay with ACE [3] (from Lophius litulon), the IC50 is 1210 µM.

In the case of “FDVDRW [RJP-derived peptide; synthesized]”, the “ACE-inhibitory activity in vitro (comparison in words)” value in assay [6] is “PYPDWSFAK and RPYPDWSF exhibited significantly higher ACE-inhibitory activity in vitro than FDVDRW and QWHDKIF”.
